Values joined by “and” are separate entries in the source; they are usually repeats but may differ in a detail not shown here. Equal entries are not always repeated. Toxic doses and inconclusive results are not listed. The calls were made as follows: active = survival T/C of 150% or more; inactive = T/C below 125% in these data.
Test system: CD2F1 mice, intracerebral L1210 leukemia, survival T/C
Assay: NCI In Vivo Anticancer Drug Screen. Data for tumor model L1210 Leukemia (intracerebral) in CD2F1 (CDF1) mice
Settings: higher = longer survival
Procedure: The antitumor activity of compounds was measured in mice bearing transplantable tumors. Survival or tumor size were measured and the results are expressed as the measurement made in the treated group (T) divided by the measurement made in the vehicle treated control group (C). The tumor model used in this assay is L1210 Leukemia (intracerebral) in CD2F1 (CDF1) mice

[1] = endpoint: median survival time, dose: 32.0 mg/kg/injection, schedule: Q01DX005 (ip), vehicle: saline with Tween-80
[2] = endpoint: median survival time, dose: 1.0 mg/kg/injection, schedule: Q01DX009 (ip), vehicle: saline
[3] = endpoint: median survival time, dose: 2.0 mg/kg/injection, schedule: Q01DX009 (ip), vehicle: saline
[4] = endpoint: median survival time, dose: 4.0 mg/kg/injection, schedule: Q01DX009 (ip), vehicle: saline
[5] = endpoint: median survival time, dose: 8.0 mg/kg/injection, schedule: Q01DX009 (ip), vehicle: saline
[6] = endpoint: median survival time, dose: 8.0 mg/kg/injection, schedule: Q01DX009 (ip), vehicle: saline with Tween-80
[7] = endpoint: median survival time, dose: 16.0 mg/kg/injection, schedule: Q01DX009 (ip), vehicle: saline with Tween-80
[8] = endpoint: median survival time, dose: 8.0 mg/kg/injection, schedule: Q01DX005 (ip), vehicle: saline + alcohol
[9] = endpoint: median survival time, dose: 16.0 mg/kg/injection, schedule: Q01DX005 (ip), vehicle: saline + alcohol
[10] = endpoint: median survival time, dose: 32.0 mg/kg/injection, schedule: Q01DX005 (ip), vehicle: saline + alcohol
[11] = endpoint: median survival time, dose: 64.0 mg/kg/injection, schedule: Q01DX005 (ip), vehicle: saline + alcohol

Measured: T/C

CN(Cc1ccccc1)/N=N/c1nc[nH]c1C(N)=O
inactive: [1] 112 % of control | endpoint: median survival time, dose: 512.0 mg/kg/injection, schedule: Q01DX005 (ip), vehicle: saline with Tween-80 94 % of control

O=P1(NCCCl)OCCCN1CCCl (stereo not given)
inactive: endpoint: median survival time, dose: 40.0 mg/kg/injection, schedule: Q01DX001 (ip), vehicle: saline 97 % of control | endpoint: median survival time, dose: 80.0 mg/kg/injection, schedule: Q01DX001 (ip), vehicle: saline 102 % of control | endpoint: median survival time, dose: 160.0 mg/kg/injection, schedule: Q01DX001 (ip), vehicle: saline 105 % of control | endpoint: median survival time, dose: 320.0 mg/kg/injection, schedule: Q01DX001 (ip), vehicle: saline 113 % of control

CN(C)N=Nc1ccccc1
inactive: endpoint: mean survival time, dose: 6.25 mg/kg/injection, schedule: Q01DX009 (ip), vehicle: Klucel (hydroxypropylcellulose) (HPC) 101 % of control and 104 % of control and 112 % of control | endpoint: mean survival time, dose: 12.5 mg/kg/injection, schedule: Q01DX009 (ip), vehicle: Klucel (hydroxypropylcellulose) (HPC) 109 % of control and 112 % of control and 113 % of control | endpoint: mean survival time, dose: 25.0 mg/kg/injection, schedule: Q01DX009 (ip), vehicle: Klucel (hydroxypropylcellulose) (HPC) 118 % of control | endpoint: mean survival time, dose: 50.0 mg/kg/injection, schedule: Q01DX009 (ip), vehicle: Klucel (hydroxypropylcellulose) (HPC) 120 % of control and 107 % of control and 115 % of control

COc1cc([C@@H]2c3cc4c(cc3[C@@H](OC3OC5COC(C)OC5C(O)C3O)[C@H]3COC(=O)[C@H]23)OCO4)cc(OC)c1O (stereo not given in full)
inactive: endpoint: median survival time, dose: 0.5 mg/kg/injection, schedule: Q01DX009 (ip), vehicle: saline 103 % of control | [2] 101 % of control | [3] 94 % of control | [4] 91 % of control | [5] 102 % of control

CC[n+]1c(-c2ccccc2)c2cc(N)ccc2c2ccc(N)cc21
inactive: endpoint: median survival time, dose: 12.0 mg/kg/injection, schedule: Q01DX005 (ip), vehicle: saline 100 % of control | endpoint: median survival time, dose: 24.0 mg/kg/injection, schedule: Q01DX005 (ip), vehicle: saline 104 % of control

CC1(C)N=C(N)N=C(N)N1c1ccc(CCC(=O)Nc2ccc(S(=O)(=O)F)cc2)c(Cl)c1
inactive: endpoint: mean survival time, dose: 6.25 mg/kg/injection, schedule: Q01DX009 (ip), vehicle: saline 94 % of control | endpoint: mean survival time, dose: 12.5 mg/kg/injection, schedule: Q01DX009 (ip), vehicle: saline 94 % of control | endpoint: mean survival time, dose: 25.0 mg/kg/injection, schedule: Q01DX009 (ip), vehicle: saline 94 % of control | endpoint: mean survival time, dose: 50.0 mg/kg/injection, schedule: Q01DX009 (ip), vehicle: saline 98 % of control

CC(=O)NNC(=O)c1ccccn1
inactive: endpoint: median survival time, dose: 100.0 mg/kg/injection, schedule: Q01DX005 (ip), vehicle: Klucel (hydroxypropylcellulose) (HPC) 103 % of control | endpoint: median survival time, dose: 200.0 mg/kg/injection, schedule: Q01DX005 (ip), vehicle: Klucel (hydroxypropylcellulose) (HPC) 105 % of control

C[C@]1(O)CC[C@H]2[C@@H]3CCC4=CC(=O)CC[C@]4(C)[C@@]3(F)[C@@H](O)C[C@@]21C
inactive: [6] 112 % of control | [7] 112 % of control | endpoint: median survival time, dose: 32.0 mg/kg/injection, schedule: Q01DX009 (ip), vehicle: saline with Tween-80 104 % of control | endpoint: median survival time, dose: 64.0 mg/kg/injection, schedule: Q01DX009 (ip), vehicle: saline with Tween-80 104 % of control | endpoint: median survival time, dose: 128.0 mg/kg/injection, schedule: Q01DX009 (ip), vehicle: saline with Tween-80 122 % of control | endpoint: median survival time, dose: 256.0 mg/kg/injection, schedule: Q01DX009 (ip), vehicle: saline with Tween-80 104 % of control | endpoint: median survival time, dose: 512.0 mg/kg/injection, schedule: Q01DX009 (ip), vehicle: saline with Tween-80 96 % of control

COc1cccc2c1C(=O)c1c(O)c3c(c(O)c1C2=O)C[C@@](O)(/C(C)=N/NC(=O)c1ccccc1)C[C@@H]3OC1CC(N)C(O)C(C)O1 (stereo not given in full)
inactive: endpoint: median survival time, dose: 1.0 mg/kg/injection, schedule: Q01DX009 (ip), vehicle: saline with Tween-80 114 % of control | [2] 98 % of control and 104 % of control | endpoint: median survival time, dose: 2.0 mg/kg/injection, schedule: Q01DX009 (ip), vehicle: saline with Tween-80 123 % of control | [3] 103 % of control and 104 % of control | endpoint: median survival time, dose: 4.0 mg/kg/injection, schedule: Q01DX009 (ip), vehicle: saline with Tween-80 123 % of control | [4] 106 % of control and 110 % of control | [6] 101 % of control | [5] 92 % of control and 116 % of control | [7] 89 % of control

C[C@@H](CN1CC(=O)NC(=O)C1)N1CC(=O)NC(=O)C1
active: endpoint: mean survival time, dose: 64.0 mg/kg/injection, schedule: Q01DX009 (ip), vehicle: water 164 % of control
inactive: endpoint: mean survival time, dose: 256.0 mg/kg/injection, schedule: Q01DX009 (ip), vehicle: water 111 % of control | endpoint: mean survival time, dose: 512.0 mg/kg/injection, schedule: Q01DX009 (ip), vehicle: water 100 % of control

C[C@@H]1C[C@@H]([C@H](O)CC2CC(=O)NC(=O)C2)C(=O)[C@@H](C)C1
inactive: endpoint: mean survival time, dose: 10.0 mg/kg/injection, schedule: Q01DX009 (ip), vehicle: saline 114 % of control | endpoint: mean survival time, dose: 20.0 mg/kg/injection, schedule: Q01DX009 (ip), vehicle: saline 101 % of control | endpoint: mean survival time, dose: 40.0 mg/kg/injection, schedule: Q01DX009 (ip), vehicle: saline 114 % of control | endpoint: mean survival time, dose: 80.0 mg/kg/injection, schedule: Q01DX009 (ip), vehicle: saline 106 % of control

COC(=O)c1ccc(N=NN(C)C)cc1
inactive: [8] 104 % of control | [9] 106 % of control | [10] 113 % of control | [11] 120 % of control | endpoint: median survival time, dose: 128.0 mg/kg/injection, schedule: Q01DX005 (ip), vehicle: saline + alcohol 112 % of control

O=c1n(CC2CO2)c(=O)n(CC2CO2)c(=O)n1CC1CO1 (stereo not given)
active: endpoint: median survival time, dose: 40.0 mg/kg/injection, schedule: Q01DX009 (ip), vehicle: saline 152 % of control
inactive: endpoint: median survival time, dose: 16.4 mg/kg/injection, schedule: Q01DX009 (ip), vehicle: saline 123 % of control | endpoint: median survival time, dose: 20.5 mg/kg/injection, schedule: Q01DX009 (ip), vehicle: saline 115 % of control | endpoint: median survival time, dose: 49.2 mg/kg/injection, schedule: Q01DX001 (ip), vehicle: saline 114 % of control | endpoint: median survival time, dose: 50.0 mg/kg/injection, schedule: Q01DX009 (ip), vehicle: saline 110 % of control and 116 % of control | endpoint: median survival time, dose: 61.4 mg/kg/injection, schedule: Q01DX001 (ip), vehicle: saline 114 % of control | endpoint: median survival time, dose: 70.0 mg/kg/injection, schedule: Q01DX009 (ip), vehicle: saline 109 % of control | endpoint: median survival time, dose: 76.8 mg/kg/injection, schedule: Q01DX001 (ip), vehicle: saline 116 % of control | endpoint: median survival time, dose: 80.0 mg/kg/injection, schedule: Q01DX009 (ip), vehicle: saline 107 % of control | endpoint: median survival time, dose: 90.0 mg/kg/injection, schedule: Q01DX009 (ip), vehicle: saline 119 % of control | endpoint: median survival time, dose: 180.0 mg/kg/injection, schedule: Q01DX009 (ip), vehicle: saline 117 % of control

CN(C)N=Nc1ccccc1C(=O)O
inactive: endpoint: mean survival time, dose: 5.0 mg/kg/injection, schedule: Q01DX007 (ip), vehicle: other 103 % of control | endpoint: mean survival time, dose: 10.0 mg/kg/injection, schedule: Q01DX007 (ip), vehicle: other 109 % of control | endpoint: mean survival time, dose: 20.0 mg/kg/injection, schedule: Q01DX007 (ip), vehicle: other 112 % of control | endpoint: mean survival time, dose: 40.0 mg/kg/injection, schedule: Q01DX007 (ip), vehicle: other 101 % of control | endpoint: median survival time, dose: 4.0 mg/kg/injection, schedule: Q01DX005 (ip), vehicle: saline + alcohol 105 % of control | [8] 102 % of control | [9] 105 % of control | [10] 108 % of control | [11] 97 % of control

O=NN(CCCl)C(=O)NC1C(O)C(O)C(O)C(O)C1O (stereo not given)
inactive: endpoint: mean survival time, dose: 9.0 mg/kg/injection, schedule: Q01DX001 (ip), vehicle: saline 110 % of control | endpoint: mean survival time, dose: 13.0 mg/kg/injection, schedule: Q01DX001 (ip), vehicle: saline 117 % of control | endpoint: mean survival time, dose: 44.0 mg/kg/injection, schedule: Q01DX001 (ip), vehicle: saline 115 % of control | endpoint: mean survival time, dose: 67.0 mg/kg/injection, schedule: Q01DX001 (ip), vehicle: saline 95 % of control

CN=NNc1nc[nH]c1C(N)=O
inactive: endpoint: median survival time, dose: 16.0 mg/kg/injection, schedule: Q01DX005 (ip), vehicle: saline with Tween-80 107 % of control | [1] 101 % of control | endpoint: median survival time, dose: 64.0 mg/kg/injection, schedule: Q01DX005 (ip), vehicle: saline with Tween-80 112 % of control | endpoint: median survival time, dose: 128.0 mg/kg/injection, schedule: Q01DX005 (ip), vehicle: saline with Tween-80 107 % of control | endpoint: median survival time, dose: 256.0 mg/kg/injection, schedule: Q01DX005 (ip), vehicle: saline with Tween-80 86 % of control
